Patent publication US7342017B2, “1,2,5-Thiadiazol-3-yl-piperazine therapeutic agents useful for treating pain, depression and anxiety” (Euro-Celtique S.A., priority 2002, dated 2008)

Legend:
[1] = molecular target: T1, Human VR1 Receptor (Homo sapiens, UniProt Q8NER1); assay: Inhibition of capsaicin-induced activation of VR1; assay type: cell-based; settings: mean ± spread, (n) = number of experiments, read-out: Inhibition of capsaicin-induced activation IC50 (nM) Mean IC50 ± SEC (n)
Excerpt: (§1) Binding of the Thiadiazolylpiperazine Compounds to the Human VR1 Receptor
(§2) Methods for assaying compounds capable of inhibiting VR1 are well known to those skilled in the art, for example, those methods disclosed in U.S. Pat. No. 6,239,267 to Duckworth et al.; U.S. Pat. No. 6,406,908 to McIntyre et al.; or U.S. Pat. No. 6,335,180 to Julius et al.

[2] = molecular target: T1, Human VR1 Receptor; assay: Inhibition of pH-induced activation of VR1; assay type: cell-based; settings: mean ± spread, (n) = number of experiments, read-out: Inhibition of pH-induced activation IC50 (nM) Mean IC50 ± SEC (n)
Excerpt: as §1, §2

T1 sequence (Q8NER1 whole entry): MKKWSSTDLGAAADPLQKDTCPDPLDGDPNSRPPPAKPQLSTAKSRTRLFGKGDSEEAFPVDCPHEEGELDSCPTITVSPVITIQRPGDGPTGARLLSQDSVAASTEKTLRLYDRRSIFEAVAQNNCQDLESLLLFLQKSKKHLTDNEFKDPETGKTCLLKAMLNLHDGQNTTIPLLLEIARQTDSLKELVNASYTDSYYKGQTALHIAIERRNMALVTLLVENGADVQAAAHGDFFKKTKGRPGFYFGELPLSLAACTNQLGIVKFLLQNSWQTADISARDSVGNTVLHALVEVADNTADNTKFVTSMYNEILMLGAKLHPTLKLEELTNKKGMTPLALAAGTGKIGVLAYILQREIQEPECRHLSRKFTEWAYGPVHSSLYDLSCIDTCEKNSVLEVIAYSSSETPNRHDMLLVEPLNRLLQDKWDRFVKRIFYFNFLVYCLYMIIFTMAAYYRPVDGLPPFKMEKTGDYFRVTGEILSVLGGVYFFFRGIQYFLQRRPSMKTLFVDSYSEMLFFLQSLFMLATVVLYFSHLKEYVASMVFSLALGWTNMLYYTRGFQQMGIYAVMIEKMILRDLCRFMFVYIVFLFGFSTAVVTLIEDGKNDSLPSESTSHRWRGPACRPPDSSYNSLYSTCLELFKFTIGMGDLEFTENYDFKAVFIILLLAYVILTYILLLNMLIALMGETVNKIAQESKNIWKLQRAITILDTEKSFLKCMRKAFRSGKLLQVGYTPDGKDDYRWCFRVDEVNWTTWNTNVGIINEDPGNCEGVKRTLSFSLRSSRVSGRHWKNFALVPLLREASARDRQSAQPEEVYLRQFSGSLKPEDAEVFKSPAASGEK

- IC50 [1]: 374 ± 233 nM
- IC50 [2]: 668 ± 265 nM
SMILES: CC(C)c1ccc(NC(=O)N2CCN(c3nsnc3Cl)CC2)cc1
